Values joined by “and” are separate entries in the source; they are usually repeats but may differ in a detail not shown here. Equal values may be shown once. Where a SMILES comes first, the peptide text is derived from it. The star is where a group is joined. X2 = CN(C)c1ccc2c(-c3ccc(N4C(=O)CC(*)C4=O)cc3C(=O)[O-])c3ccc(=[N+](C)C)cc-3oc2c1; X1 = CCOC(=O)c1cc2cc3c(cc2oc1=O)N(CC(=O)NCCN1C(=O)CC(*)C1=O)C(C)(C)CC3C
Columns and labels:
[1] = Critical Micelle Concentration by pyrene 1:3 ratio method; type: physicochemical; conditions: water solutions, 25 °C, 5 × 10^−7 μM pyrene, excitation 335 nm, I1 373 nm / I3 385 nm, 0.5-100 μM peptide, center of Boltzmann sigmoid fit
Experimental: All the peptide solutions were always freshly prepared and dye-labeled peptides were quantified by UV-Vis absorbance. Unlabeled peptides were quantified by amino acidic digestion obtained by the mineralization of a known amount of peptide (5–50 μg) dissolved in 200–500 μl of HCl 6 M, with the following conditions: temperature: 170 °C; time: 20 minutes. Finally, derivatized amino acids were detected by RP-HPLC (Jupiter 4 μm Proteo 90 Å column (250 × 4.6 mm; Phenomenex) with these solvents: water:TFA 100:0.01 v/v (eluent A)/acetonitrile:water:TFA 95:5:0.01 v/v (eluent B), flux 1 ml/min, and their identity was confirmed by electrospray mass spectroscopy. CMC values of peptide and labeled-peptide systems were then determined by the pyrene 1:3 ratio method. Fluorescence emission spectra at 25 °C of unlabeled and labeled peptide water solutions containing 5 × 10^−7 μM pyrene were recorded using an excitation wavelength of 335 nm. The intensities I1 and I3 were measured at the wavelengths corresponding to the first and third vibronic bands of pyrene (373 nm, emission range: 368–378 nm, and 385 nm, emission range: 380–390 nm, respectively). According to literature, the plot of the pyrene 1:3 ratio index as a function of the concentration of the surfactant can be described by a decreasing sigmoid of the Boltzmann type and indicates the transition from the monomeric to the aggregated form of the peptide. Experimental raw data were fitted using the OriginPro8 software, and the center of the sigmoid is identified as the characteristic CMC.

[2] = test system: CHO-K1 cells; assay: WST-8 Cell Viability Assay; type: cell-based, Chinese Hamster
Experimental: Cytotoxicity of unlabeled peptides and dye-labeled peptides was evaluated by the WST-8 assay. CHO-K1 cell proliferation was evaluated by plating 5 × 10^3 cells per well in 96-well plates. After 24 hours in serum-containing DMEM-F12 medium, the cells were incubated with a serum-free DMEM-F12 solution of unlabeled or dye-labeled peptides for 2 hours at 37 °C. After the incubation, the medium was removed, cells were washed with PBS 1X and incubated for 2 hours at 37 °C with 100 μl of a 10%-solution of WST-8 dissolved in serum-containing DMEM-F12. Absorbance at 450 nm was measured using a multiplate reader (Microplate Reader, GloMax®-Discover and Explorer Systems, Promega). Cell viability was quantitatively determined by comparing peptide-treated cells with untreated cells (as a reference of 100% viability) and cells treated with dimethyl sulfoxide (DMSO) 20% v/v. Reported data represent the average of three independent experiments, in which three wells for each concentration were measured. Error bars represent the standard errors.

[3] = test system: CHO-K1 cells; assay: Cell uptake / translocation by confocal fluorescence microscopy; type: cell-based, Chinese Hamster; conditions: all concentrations tested (0.5-10 μM), serum-free medium, peptide from water stock, 20 min at 37 °C
Experimental: Homogeneous peptide solutions used for translocation experiments were always freshly prepared. Purified dye-labeled peptides were pre-dissolved in 100–200 μl of water and sonicated for 15 minutes at 25 °C. Then they were quantified by UV-Vis absorbance (concentration ranging between 100 and 200 μM; for ATTO 425 Maleimide: ε436(water) = 45000 cm^−1M^−1, for TAMRA: ε543(water) = 80000 cm^−1M^−1). An appropriate amount from this stock water-solution was diluted in 200–300 μl of serum-free DMEM F-12 growth medium and then administered to cells. Ionic strength was adjusted to physiological values adding the required amount of 10X PBS buffer.
Chinese Hamster Ovary (CHO-K1) and PgsA-745 cells were purchased from ATCC (reference numbers: CCL-61 and CRL-2242, respectively) and grown in DMEM F-12 medium supplemented with 10% of Fetal Bovine Serum (FBS) at 37 °C with 5% CO2, according to manufacturer’s instructions. […]
Confocal imaging experiments were performed with a Leica TCS SP5 SMD inverted confocal microscope (Leica Microsystems) interfaced with a diode laser (Picoquant) for excitation at 405 nm. […] All images and videos collected were analyzed by ImageJ software version 1.440 (NIH Image; http://rsbweb.nih.gov/ij/). […] RICS correlation function was calculated by the SimFCS software, developed at the Laboratory for Fluorescence Dynamics (www.lfd.uci.edu). […]

[4] = Dynamic Light Scattering of peptide aggregates; type: physicochemical; conditions: water solutions at 100 μM (above CMC), 25 °C, scattering angle 90°, average of five consecutive measurements
Experimental: DLS measurements were performed at 25 °C in a 50-μL quartz cuvette on a Zetasizernano ZS DLS (Malvern Instrument) following the manufacturer’s instructions. Water solutions of labeled-peptide at 100 μM were analyzed with a single scattering angle of 90°. Each value reported is the average of five consecutive measurements.

[5] = UV absorption of peptide in water after addition from DMSO stock (precipitation); type: physicochemical; conditions: 2μM in water, added directly from DMSO stock, UV absorption versus addition from water solution; consistent with a precipitate
Experimental: Fig S5: UV absorption spectra of TP2 at 2μM concentration in water, measured upon addition of the peptide directly from DMSO stock solution (blue trace) or from a water solution (black trace). Only this latter procedure yields the expected absorption spectrum (indicated by the dashed black line). […] This in turn is consistent with the formation of a stabilized phase that is not diffusing in solution, but likely under the form of a precipitate.

Row | Compound | Critical Micelle Concentration (CMC) [1] | cell viability ([2]; 20 µM) | cell viability ([2]; 30 µM) | uptake mechanism (confocal imaging) [3] | hydrodynamic radius (RH) from DLS [4] | peptide apparently lost upon direct addition from DMSO to water [5]
1 | CN(C)c1ccc2c(-c3ccc(N4C(=O)C=CC4=O)cc3C(=O)[O-])c3ccc(N(C)C)cc3[o+]c2c1 [TAMRA, Tetramethylrhodamine-5-maleimide] | ~80 µM and 80 ± 14 µM |  |  |  |  | 
2 | CCOC(=O)c1cc2cc3c(cc2oc1=O)N(CC(=O)NCCN1C(=O)CC(SC[C@H](NC(=O)CNC(=O)[C@H](CCCNC(=N)N)NC(=O)[C@H](CC(C)C)NC(=O)[C@H](CC(C)C)NC(=O)[C@H](CCCNC(=N)N)NC(=O)[C@H](CC(C)C)NC(=O)[C@H](Cc2ccc(O)cc2)NC(=O)[C@@H](NC(=O)[C@H](CC(C)C)NC(=O)[C@@H]2CCCN2)[C@@H](C)CC)C(=O)O)C1=O)C(C)(C)CC3C (stereo partly drawn) [TM9-ATTO 425] (H-PLIYLRLLRGC(X1)-OH) |  | 60% | 40% |  |  | 
3 | CC[C@H](C)[C@H](NC(=O)[C@H](CC(C)C)NC(=O)[C@@H]1CCCN1)C(=O)N[C@@H](Cc1ccc(O)cc1)C(=O)N[C@@H](CC(C)C)C(=O)N[C@@H](CCCNC(=N)N)C(=O)N[C@@H](CC(C)C)C(=O)N[C@@H](CC(C)C)C(=O)N[C@@H](CCCNC(=N)N)C(=O)NCC(=O)N[C@@H](CSC1CC(=O)N(c2ccc(-c3c4ccc(=[N+](C)C)cc-4oc4cc(N(C)C)ccc34)c(C(=O)[O-])c2)C1=O)C(=O)O (stereo partly drawn) [TM9-TAMRA] (H-PLIYLRLLRGC(X2)-OH; N-terminus and C-terminus assumed) | 3.8 ± 0.5 µM |  |  | only endocytosis is present | 135 ± 14 nm | 
4 | PLIYLRLLR-G-QF [TP2] | 1.0 ± 0.2 µM |  |  |  | 163 ± 6 nm | ~60%

Source: PMC4645181, “Spontaneous membrane-translocating peptides: influence of peptide self-aggregation and cargo polarity” (Scientific Reports, 2015)
